Drawing on patent US20250257075A1, “MACROCYCLIC INHIBITORS OF KRAS FOR THE TREATMENT OF CANCER” (Hoffmann-La Roche Inc., priority 2022, published 2025), this text covers IC50 for three compounds.

Molecules are shown by their SMILES.

Experiment [1] relates to phosphorylation of ERK, KRAS G12C in NCI-H358 cells. The experiment can be described thus: pERK inhibition assay, G12C. In kind it is cell-based, human. Particulars: Homo sapiens; NCI-H358, 4 hours of incubation. As for the experimental part:
(§1) This assay is to measure the ability of test compounds in inhibiting the phosphorylation of ERK, the downstream signaling of KRAS G12C in NCI-H358 cells, KRAS G12D in AGS cells, and KRAS G12V in SW620. NCI-H358 (ATCC-CRL5807) cells, AGS (ATCC-CRL-1739) cells, SW620 (ATCC-CCL-227) cells were all grown and maintained using RPMI-1640 medium (Thermo Fisher Scientific) with 10% fetal bovine serum and 1% penicillin/streptomycin. On the day prior to compound addition, cells were plated in tissue culture-treated 96 well plates (Corning-3699) at a density of 30,000 cell/well, 20,000 cell/well, 30,000 cell/well for NCI-H358, AGS and SW620 respectively, and allowed for attachment overnight. Diluted compounds were then added in a final concentration of 0.5% DMSO. After 4 hours of incubation, the medium was removed, 100 μL of 4% formaldehyde was added, and the assay plates were incubated at room temperature for 20 minutes. The plates were then washed once with phosphate buffered saline (PBS), and permeabilized with 100 μL of chilled methanol for 10 minutes. Non-specific antibody binding to the plates was blocked using 50 μL 1×BSA blocking buffer (Thermo-37520, 10-fold dilution by Phosphate-Buffered Saline Tween (PBST) for at least 1 hour at room temperature.
(§2) The amount of phosphor-ERK was determined using an antibody specific for phosphorylated form of ERK. Primary antibody (pERK, CST-4370, Cell Signaling Technology) was diluted 1:300 in blocking buffer, with 50 μL aliquoted to each well, and incubated overnight at 4° C. Cells was washed five times for 5 minutes with PBST. Secondary antibody (HRP-linked anti-rabbit IgG, CST-7074, Cell Signaling Technology) was diluted 1:1000 in blocking buffer, and 50 μL was added to each well and incubated 1-2 hrs at room temperature. Cells was washed 5 times for 5 minutes with PBST, 100 μL TMB ELISA substrate (abcam-ab171523) were added and gently shake for 20 minutes. 50 μL stop solution (abcam-ab171529) were added, and then read the signal (OD450) by EnVision.
(§3) IC50 was determined by fitting a 4-parameter sigmoidal concentration response model.

For experiment [2], the system named is NCI-H358 cells (KRAS G12C). The experiment can be described thus: Cell viability assay, G12C. The note with it: Homo sapiens; NCI-H358, 72 hrs, Cell Counting Kit-8. In kind it is cell-based, human. As for the experimental part: (§4) The purpose of this cellular assay was to determine the effects of test compounds on the proliferation of human cancer cell lines NCI-H358 (ATCC-CRL5807) cells, AGS (ATCC-CRL-1739) cells, SW620 (ATCC-CCL-227) over a 3-day treatment period by quantifying the amount of NADPH present at endpoint using Cell Counting Kit-8.
(§5) Cells were seeded at 5,000 cells/well (NCI-H358), 2,000 cells/well (AGS) 2,000 cells/well (SW620) in 96-well assay plates (Corning-3699) and incubated overnight. On the day of the assay, diluted compounds were then added in a final concentration of 0.5% DMSO. After 72 hrs incubation, a tenth of the volume of cell counting kit 8 (Dnjindo-CK04) was added into each well. Read the signal (OD450 minus OD650) using EnVision after 2 hrs incubation. IC50 was determined by fitting a 4-parameter sigmoidal concentration response model.

Experiment [3] has as its target T1, KRAS G12C-BRAF complex (Homo sapiens, UniProt P01116+P62937, G12C).
T1 construct: expressed in transfected cells
The experiment can be described thus: KRAS G12C-BRAF NanoBit assay in HEK293 cells. The class given is cell-based. Particulars: HEK293 stable cell pool, 3 hours of incubation. As for the experimental part: This assay is to measure the ability of tested compounds in disruption of the KRAS G12C-BRAF complex at the cellular level, we established the NanoBit cellular assay in mammalian HEK293 (ATCC) cells. HEK293 cells were grown and maintained using DMEM medium (Thermo Fisher Scientific) with 10% fetal bovine serum and 1% penicillin/streptomycin. Both KRAS G12C and BRAF RBD were cloned into the NanoBit vectors ([…] vectors system, Promega) with the orientations SmBit-KRAS G12C and BRAF RBD-LgBit, respectively, and co-transfected into HEK293 cells. Cells were then selected with 100 μg/mL Hygromycin B (10687010, Thermo Fisher) and Blasticidin (5 μg/mL) for 4 weeks to get the stable cell pool. On the day of the assay, 75 nL of compound solution was presented in a 384-well assay plate as a 16-point 3-fold dilution starting from a final concentration of 30 μM in DMSO. Then cells were seeded at 10,000 cells/25 μL/well in a 384-well plate. After 3 hours of incubation, 6 μL of volume of Nano-Glo® Live Cell Substrate (Promega) was added into each well. Monitor luminescence using ultra384 model in Envision at 20 minutes. Compounds that facilitate disruption of the KRAS G12C-BRAF RBD complex were identified as those eliciting a decrease of luminescence relative to DMSO control wells.

Experiment [4] deals with SW620 cells (KRAS G12V). The experiment can be described thus: Cell viability assay, G12V. In kind it is cell-based, human. The note with it: Homo sapiens, SW-620; SW620, 72 hrs, Cell Counting Kit-8. As for the experimental part:
as §4, §5
On the technique in general: Tetrazolium assays rely on reduction of a dye to a coloured formazan, in cell work by metabolically active cells.

The target in experiment [5] is KRAS G12D binding to BRAF (Homo sapiens, UniProt P01116+P62937, G12D). The experiment can be described thus: KRAS-BRAF with CYPA (500 nM) interaction assay (TR-FRET), G12D. In kind it is biochemical. The note with it: 3 hours. As for the experimental part:
(§6) Kras-BRAF with CYPA (500 nM) Interaction Assay In this example, TR-FRET was also used to measure the compound or compound-CYPA dependent disruption of the KRAS G12C-BRAF complex. This protocol was also used to measure disruption of KRAS G12D or KRAS G12V binding to BRAF by a compound of the invention, respectively. […] TR-FRET signal was read on a […] microplate reader (Ex320 nm, Em 665/615 nm). Compounds that facilitate disruption of the KRAS-BRAF complex were identified as those eliciting a decrease in the TR-FRET ratio relative to DMSO control wells.
(In general: In TR-FRET formats the signal depends on donor and acceptor labels being close together.)

Experiment [6] deals with AGS cells (KRAS G12D). The experiment can be described thus: Cell viability assay, G12D. Particulars: Homo sapiens, 72 hrs, Cell Counting Kit-8. In kind it is cell-based, human. The method, then: as §4, §5
The target of experiment [7] is T1, KRAS G12C-BRAF complex. Nature of the experiment: KRAS-BRAF with CYPA (500 nM) interaction assay (TR-FRET), G12C. The class given is biochemical. Particulars: 3 hours. The method, then:
as §6

For experiment [8], the system named is phosphorylation of ERK, KRAS G12V in SW620. Nature of the experiment: pERK inhibition assay, G12V. The note with it: Homo sapiens, SW-620; SW620, 4 hours of incubation. The class given is cell-based, human. As for the experimental part:
as §1, §2, §3

The target in experiment [9] is KRAS G12V binding to BRAF (Homo sapiens, UniProt P01116+P62937, G12V). Nature of the experiment: KRAS-BRAF with CYPA (500 nM) interaction assay (TR-FRET), G12V. Particulars: 3 hours. The class given is biochemical. As for the experimental part:
as §6

In experiment [10] the test system is phosphorylation of ERK, KRAS G12D in AGS cells. Nature of the experiment: pERK inhibition assay, G12D. The class given is cell-based, human. Particulars: Homo sapiens, 4 hours of incubation. The method, then:
as §1, §2, §3

T1 sequence (P01116 1-188 isoform P01116-2 G12C): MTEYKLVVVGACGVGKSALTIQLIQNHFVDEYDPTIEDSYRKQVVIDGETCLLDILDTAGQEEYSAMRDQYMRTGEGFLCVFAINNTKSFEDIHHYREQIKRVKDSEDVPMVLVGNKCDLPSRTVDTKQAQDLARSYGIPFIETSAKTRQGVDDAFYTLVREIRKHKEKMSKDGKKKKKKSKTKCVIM
T1 sequence (P62937 whole entry): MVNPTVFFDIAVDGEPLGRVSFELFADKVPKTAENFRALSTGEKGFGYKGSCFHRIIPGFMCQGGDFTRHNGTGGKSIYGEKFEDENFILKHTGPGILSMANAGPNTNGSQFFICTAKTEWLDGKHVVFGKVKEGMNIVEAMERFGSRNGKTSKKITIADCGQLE
Chain of KRAS G12D binding to BRAF (P01116 1-188 isoform P01116-2 G12D): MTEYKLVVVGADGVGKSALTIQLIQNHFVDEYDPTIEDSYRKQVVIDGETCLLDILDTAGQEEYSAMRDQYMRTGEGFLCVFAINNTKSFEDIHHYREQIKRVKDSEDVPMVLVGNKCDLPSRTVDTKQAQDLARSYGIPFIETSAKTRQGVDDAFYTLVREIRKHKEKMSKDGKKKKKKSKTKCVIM
Chain of KRAS G12D binding to BRAF (P62937 whole entry): as the sequence (P62937 whole entry) above
Chain of KRAS G12V binding to BRAF (P01116 1-188 isoform P01116-2 G12V): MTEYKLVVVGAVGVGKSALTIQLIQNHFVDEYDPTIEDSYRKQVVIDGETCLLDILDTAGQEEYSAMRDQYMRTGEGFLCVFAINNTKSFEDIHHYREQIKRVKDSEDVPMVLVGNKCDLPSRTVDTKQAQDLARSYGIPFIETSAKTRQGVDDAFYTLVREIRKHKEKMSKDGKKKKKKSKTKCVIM
Chain of KRAS G12V binding to BRAF (P62937 whole entry): as the sequence (P62937 whole entry) above

One may read the IC50 as the concentration that gives 50% inhibition. The low end stands for greater potency in that assay, the high end for weaker potency in that assay. `CO[C@@H](C)c1ncc(N2CCN(C)CC2)cc1-c1c2c3cc(c(F)cc3n1CC(F)(F)F)-c1csc(n1)C[C@H](NC(=O)[C@H](C(C)C)N(C)C(=O)N1CC(C#CC(F)(F)F)C1)C(=O)N1CCC[C@H](N1)C(=O)OCC(C)(C)C2` (atropisomer, axis not shown; (M)) [Example 2, N-[(1S)-1-[[(7S,13S)-24-fluoro-(20M)-20-[2-[(1S)-1-methoxyethyl]-5-(4-methylpiperazin-1-yl)-3-pyridyl]-17,17-dimethyl-8,14-dioxo-21-(2,2,2-trifluoroethyl)-15-oxa-4-thia-9,21,27,28-tetrazapentacyclo[17.5.2.1^2,5.1^9,13.0^22,26]octacosa-1(25),2,5(28),19,22(26),23-hexaen-7-yl]carbamoyl]-2-methyl-propyl]-N-methyl-3-(3,3,3-trifluoroprop-1-ynyl)azetidine-1-carboxamide]: the IC50 in experiment [1] was 0.013 µM; in [2], 0.002 µM; in experiment [3], 0.018 µM; in [4], 0.01 µM; in experiment [5] it was above 10 µM; in experiment [6], 0.02 µM. For the same compound, the IC50 in experiment [7] was 1.79 µM; in experiment [8], 0.007 µM; in experiment [9], 6.74 µM.
As for `CCn1c(-c2cc(N3CCN(C)CC3)cnc2[C@H](C)OC)c2c3cc(c(F)cc31)-c1csc(n1)C[C@H](NC(=O)[C@H](C(C)C)N(C)C(=O)[C@H]1C[C@@H](C#CC(F)(F)F)C1)C(=O)N1CCC[C@H](N1)C(=O)OCC(C)(C)C2` (atropisomer, axis not shown; (M)) [Example 6, cis-N-[(1S)-1-[[(7S,13S)-21-ethyl-24-fluoro-(20M)-20-[2-[(1S)-1-methoxyethyl]-5-(4-methylpiperazin-1-yl)-3-pyridyl]-17,17-dimethyl-8,14-dioxo-15-oxa-4-thia-9,21,27,28-tetrazapentacyclo[17.5.2.1^2,5.1^9,13.0^22,26]octacosa-1(25),2,5(28),19,22(26),23-hexaen-7-yl]carbamoyl]-2-methyl-propyl]-N-methyl-3-(3,3,3-trifluoroprop-1-ynyl)cyclobutanecarboxamide], the IC50 was 0.002 µM in experiment [1]; below 0.001 µM in [2]; 0.029 µM in [3]; 4.73 µM in [4]; above 10 µM in experiment [5]; 2.84 µM in [6]. Further, the IC50 in experiment [7] was 0.021 µM; in experiment [8] it was 0.008 µM; in experiment [9] it was above 10 µM.
In the case of `CCn1c(-c2cc(N3CCOCC3)cnc2[C@H](C)OC)c2c3cc(c(F)cc31)-c1csc(n1)C[C@H](NC(=O)[C@H](C(C)C)N(C)C(=O)N1CC(C#CC(F)(F)F)C1)C(=O)N1CCCC(N1)C(=O)OCC(C)(C)C2` (stereo partly drawn) [Example 20, N-[(1S)-1-[[(7S,13S)-21-ethyl-24-fluoro-(20M)-20-[2-[(1S)-1-methoxyethyl]-5-morpholino-3-pyridyl]-17,17-dimethyl-8,14-dioxo-15-oxa-4-thia-9,21,27,28-tetrazapentacyclo[17.5.2.1^2,5.1^9,13.0^22,26]octacosa-1(25),2,5(28),19,22(26),23-hexaen-7-yl]carbamoyl]-2-methyl-propyl]-N-methyl-3-(3,3,3-trifluoroprop-1-ynyl)azetidine-1-carboxamide], the IC50 in experiment [1] was 0.093 µM; in experiment [2] it was 0.025 µM; in experiment [3] it was 0.084 µM; in experiment [10] it was 2.51 µM; in [4] it was 0.119 µM; in experiment [6], above 10 µM. In experiment [8], this compound displayed an IC50 of 0.096 µM.
